{"source": "paper PMC10447463", "about": "“Data-mining unveils structure–property–activity correlation of viral infectivity enhancing self-assembling peptides” (Nature Communications, 2023)", "key": {"[1]": {"system": "TZM-bl cells", "assay_type": "cell-based", "settings": "CellTiter-Glo, mean of n = 3 replicates; for viability 0.26 µM: peptide 0.26 µM; for viability 1.3 µM: peptide 1.3 µM; for viability 6.5 µM: peptide 6.5 µM", "protocol": "The cell viability after addition of peptides to TZM–bl cells was studied via the CellTiter–Glo assay. To this end, 10,000 cells were seeded and on the next day serial diluted peptides were added. After 3 days the supernatant was removed and 100 µL CellTiter–Glo Reagent 1:1 diluted in PBS was added. After 10 min 50 µL was transferred to white microplate and luminescence was recorded by Orion microplate luminometer.\n2. Cell Viability of Representatively Selected Peptides\nFigure S 2 Cell Viability normalized to 100% metabolic activity as determined by CellTiterGlo Assay of 57 representatively selected peptides from the library. The selection represents infectivity enhancing and not […]\nconcentration. Error bars indicate standard deviation from triplicate measurements. Source data for Figure S2 […]\nFigure S3 Cell Viability normalized to 100% metabolic activity determined by CellTiterGlo Assay of 20 peptides reported in literature. 33,34,43–48,35–42 Cell viability (> 80%) is maintained for all peptides at 1.3 µM concentration regardless of the preparation method, which is A PNF formation method by dilution of 10 mg/mL peptide stock in DMSO in PBS to 1 mg/mL or B preparation according to literature reported protocol (SI Section 8). Error bars indicate standard deviation from triplicate measurements. Source data for Figure S3 is provided."}, "[2]": {"experiment": "Zeta-potential measurement", "assay_type": "physicochemical", "settings": "zeta potential of peptide; Fig S15 source data", "protocol": "4 µL of 1 mg/mL peptide fibrils solution is added to a 20 µL, 50 µM ThT–solution in PBS. The mixture is incubated for 15 min at RT to allow binding of ThT dye with β–sheet rich structures. For reference PBS (4 µL) was added instead of peptide fibril solution. The samples were placed in black UV Star® 384 microliter well–plates (Greiner bio–one). Fluorescence spectra were recorded on an Infinite® M1000 PRO microplate reader (Tecan) at λem = 488 nm upon excitation at λex = 440 nm with 10 nm bandwidths and multiple reads per well (3×3). Measurements were repeated in triplicates and averaged with standard deviation. […] Zeta-Potential. For the determination of the surface charge of aggregated peptides zeta-potential measurements were conducted with a Zetasizer Nano ZS, Malvern Instruments. Unless stated otherwise the peptides were dissolved from DMSO (10 mg/mL) in PBS (pH 7.4) to concentration of 1 mg/mL and incubated for 1d at RT. Just before the measurement the 60 µL of the peptides were further diluted in 600 µL KCl (aq, 1 mM) in a 1 mL disposable folded capillary cells (DTS–1060, Zetasizer Nano series, Malvern). The zeta potential of the peptides was derived from the electrophoretic mobility based on the Smoluchowski formula. All measurements were averaged over two individually performed experiments and conducted in triplicates for each sample. Aggregate analysis. […] Furthermore, fluorescence microscopy was conducted by staining 1 µL preformed fibrils (1 mg/mL) with 9 µL ThT (50 µM). Brightfield microscopy was performed simultaneously to evaluate aggregation also for non ThT-active fibrils. The measurements were performed on a Leica DMi8 microscope with 10x air objective and equipped with a Leica MC170 HD camera with a filter setting λem = 527/30 nm upon excitation at λex = 480/40 nm) and processed with the Leica LASX software. To quantify size and number of microscopic aggregation of particles > 10 µm^2 at least 3 independently measured images were analyzed via the 3D object counter analysis tool of ImageJ, v 1.53f51. Sum–frequency generation. The SFG experiments were carried out with a femtosecond Ti: Sapphire amplified laser system (Spitfire Ace, Spectra–Physics, 800 nm, 40 fs, 1 kHz) with 5 W output power. We used 2 W to pump an optical parametric amplifier (TOPAS, light conversion) with a non–collinear difference frequency generation stage to generate broadband IR pulses. Another 1 W of the laser output passed through an etalon to generate narrowband visible pulses (10 cm^-1). The incident angles of the visible and IR beams were 36° and 41° with respect to the surface normal, respectively. The visible (13 µJ) and IR (5 µJ) pulses were overlapped spatially and temporally at the sample position. Subsequently, the generated SFG pulse was guided into a spectrograph (Acton SP 300i, Princeton Instruments), and detected with an EMCCD (Newton, Andor Technology). To avoid IR absorption of water vapor, we purged N2 for the measurement. All spectra were collected in the ssp (denoting s-, s- and p-polarized SFG, visible and IR, respectively) polarization combination. The spectra were normalized to the non–resonant signal taken from z–cut quartz after subtracting a background spectrum. […]"}, "[3]": {"system": "HIV-1 infection of TZM-bl cells", "experiment": "HIV-1 infectivity enhancement assay, β-galactosidase luminescence", "assay_type": "cell-based"}}, "data": [{"substance": "CKIW [TM81]", "values": [{"measurement": "viability 0.26 µM", "setting": "[1]", "value": 106.2}, {"measurement": "viability 1.3 µM", "setting": "[1]", "value": 107.1}, {"measurement": "viability 6.5 µM", "setting": "[1]", "value": 100.6}, {"measurement": "Zeta-pot. / mV", "setting": "[2]", "value": -3.71, "unit": "mV"}, {"measurement": "infectivity", "setting": "[3]; infectivity class (low / medium / high) of the peptide in the sequence-pattern analysis, Fig. S22-A4, class limits not given", "value": "low"}, {"measurement": "Log10 Inf. rel. to EF-C", "setting": "[3]; log10 of HIV-1 infection of TZM-bl cells relative to EF-C, Fig S15 source data, asymmetric std dev errors", "value": -1.286}]}, {"substance": "QCKIKQIINMWQ [EF-C (Münch Stock)]", "values": [{"measurement": "viability 0.26 µM", "setting": "[1]", "value": 102}, {"measurement": "viability 1.3 µM", "setting": "[1]", "value": 94.89}, {"measurement": "viability 6.5 µM", "setting": "[1]", "value": 78.3}]}]}
